Data as given in article PMC12702354, “Engineered an ultrasmall curcumin oral nanoformulation restores intestinal integrity and gut microbiota dysbiosis” (Materials Today Bio, 2025).
One block for each compound: values may come before it.

Experiments:
[1] = Distribution of DiR-loaded UsNFs in the GIT; assay type: in vivo, C57BL/6J mice; conditions: oral, 2 mg/kg DiR
Protocol: 34 Distribution of UsNFs in the GIT.
37 of 2 mg/kg DiR. […] The stomachs and
41 FITC-dextran permeability assay .
Blood samples were collected at
44 shielded from light exposure. […] Standards (0.1–
48 subtraction and subjected to statistical analysis.
The mice were divided into three groups
61 sterilized drinking water.

[2] = system: VAN-induced C57BL/6J mouse model; test: VAN-induced intestinal epithelial barrier dysfunction and gut inflammation model
Protocol: This was succeeded by a daily oral administration of 50 mg/kg UsNFs of CUR for another 10 days, whereas the control group (CON) received standard rodent feed and water (Fig. 5A).

[3] = system: faecal metabolites of gut bacteria; test: Faecal metabolome analysis (GC-MS) in VAN-induced mice; assay type: in vivo, C57BL/6 mice
Protocol: The extract of faecal samples (40 mg/ml methanol) was prepared as described in the previous method. The obtained dry extract was derivatized with methoxyamine-HCl and BSTFA (Sigma-Aldrich, USA), followed by incubation for 1 h at 37 °C. Subsequently, the supernatant (10 μl) obtained after centrifugation at 10,000×g for 12 min was injected into an Agilent GC-MS. The injector, transfer line, and ion source were set at 280 °C, 150 °C and 230 °C, respectively. At the beginning, we set the oven temperature to 60 °C, and then increased at 60 °C/min for 2 min, followed by an increase at the rate of 10 °C/min until reaching 300 °C.

Residence in the GIT (NIR signal of DiR) [1]: quick removal via feces
SMILES: CCCCCCCCCCCCCCCCCCN1C(=CC=CC=CC=CC2=[N+](CCCCCCCCCCCCCCCCCC)c3ccccc3C2(C)C)C(C)(C)c2ccccc21 [Free DiR, 1,1′-dioctadecyl-3,3,3′,3′-tetramethylindotricarbocyanine]

SMILES: CN[C@H](CC(C)C)C(=O)N[C@H]1C(=O)N[C@@H](CC(N)=O)C(=O)N[C@H]2C(=O)N[C@H]3C(=O)N[C@H](C(=O)N[C@H](C(=O)O)c4cc(O)cc(O)c4-c4cc3ccc4O)[C@H](O)c3ccc(c(Cl)c3)Oc3cc2cc(c3O[C@@H]2O[C@H](CO)[C@@H](O)[C@H](O)[C@H]2O[C@H]2C[C@](C)(N)[C@H](O)[C@H](C)O2)Oc2ccc(cc2Cl)[C@H]1O [VAN, vancomycin]
Colon length increase over control group ([2]; VAN 20 mg/ml in drinking water, 10 days): 21.9%
MDA level increase ([2]; VAN-induced group): around 2.5 times
Content of butyrate in faeces ([3]; VAN-induced group (CON 1.1 %)): 0.14%
Content of propionate in faeces ([3]; VAN-induced group (CON 1.3 %)): 0.16%
Content of acetate in faeces ([3]; VAN-induced group (CON 1.52 %)): 0.16%
Content of azelaic acid in faeces ([3]; VAN-induced group (CON 2.2 %)): 0.34%
Content of 9,12,15-octadecatrienoic acid in faeces ([3]; VAN-induced group (CON 3.11 %)): 0.8%
Content of 4-aminovaleric acid in faeces ([3]; VAN-induced group (CON 12.7 %)): 1.4%
Content of hexanoic acid in faeces ([3]; VAN-induced group, printed from 23.7 % to 0.81 %): 0.81%
